Where no end group is shown, it is not given here.
Key:
S. mutans [1] = assay: Dose-dependent growth inhibition of cultures with tryglysin titrations over 9 hours; assay type: cell-based, Streptococcus mutans
Method: (§1) Growth inhibition of S. mutans and S. ferus cultures was tested with titrations of both tryglysin A and B over a period of 9 hours.
Referring to FIG. 3A, the dose-dependent growth inhibition of S. mutans by Triglysin A can be seen. Cultures exposed to no tryglysin A 301, 10 nM tryglysin A 302, 100 nM tryglysin A 303, and 1 μM tryglysin A 304 can be seen.
Referring to FIG. 3C, the dose-dependent growth inhibition of S. mutans by Triglysin B can be seen. Cultures exposed to no tryglysin B 321, 10 nM tryglysin B 322, 100 nM tryglysin B 323, and 1 μM tryglysin B 324 can be seen.

S. ferus = assay: as above; assay type: cell-based, Streptococcus ferus; conditions: 9-h growth assay
Method: as §1
Referring to FIG. 3B, the dose-dependent growth inhibition of S. ferus by Triglysin A can be seen. Cultures exposed to no tryglysin A 311, 10 nM tryglysin A 312, and 100 nM tryglysin A 313 can be seen.
Referring to FIG. 3D, the dose-dependent growth inhibition of S. ferus by Triglysin B can be seen. Cultures exposed to no tryglysin B 331, 10 nM tryglysin B 332, and 100 nM tryglysin B 333 can be seen.

E. faecalis V583 = assay: Culture growth upon treatment with 100 nM antibiotic; assay type: cell-based, Enterococcus faecalis; parameters: key: “−” indicates not inhibited; “+” indicates mildly inhibited; “++” indicates inhibited
Method: (§2) Other streptococcal species have similar dose-dependent growth inhibitory responses to tryglysins. WGK peptides inhibit growth of several streptococcal species, but not E. faecalis or L. lactis. We extended the evaluation of tryglysin inhibitory activity to other bacterial species. Culture growth rates of several Gram-positive species were evaluated upon treatment with 100 nM each antibiotic. Most susceptible to treatments, with complete growth inhibition at only 100 nM tryglysins, were strains of S. mitis, S. oralis, and S. pneumoniae, each being members of the mitis group. […] Unaffected were cultures of S. pyogenes, Lactococcus lactis, and Enterococcus faecalis (FIG. S4A to F).
(§3) It can also be seen that the disclosed peptides inhibit growth of several streptococcal species, but not others outside of streptococcal species, such as E. faecalis or L. lactis.
(§4) Specifically, bacterial strains were grown from prestored glycerol stocks at −80° C. and inoculated into THY broth. Strains were incubated overnight at 37° C. in an atmosphere of 5% CO2, and the next morning, they were washed and resuspended in fresh, prewarmed CDM as described above in Example 4.

L. lactis ATCC 11454 = assay: as above; assay type: cell-based, Lactococcus lactis; parameters: key: “−” indicates not inhibited; “+” indicates mildly inhibited; “++” indicates inhibited
Method: as §2, §3, §4

S. pyogenes NZ131 = assay: as above; assay type: cell-based, Streptococcus pyogenes; parameters: key: “−” indicates not inhibited; “+” indicates mildly inhibited; “++” indicates inhibited
Method: as §2, §3, §4

S. ferus DSM 20646 = assay: as above; assay type: cell-based, Streptococcus ferus; parameters: key: “−” indicates not inhibited; “+” indicates mildly inhibited; “++” indicates inhibited
Method: as §2, §3, §4

S. mutans UA159 = assay: as above; assay type: cell-based, Streptococcus mutans; parameters: key: “−” indicates not inhibited; “+” indicates mildly inhibited; “++” indicates inhibited
Method: as §2, §3, §4

S. sanguinis ATCC 10556 = assay: as above; assay type: cell-based, Streptococcus sanguinis; parameters: key to Inhibition By (S. sanguinis ATCC 10556): “−” indicates not inhibited; “+” indicates mildly inhibited; “++” indicates inhibited
Method: as §2, §3, §4

S. gordonii Challis Bt = assay: as above; assay type: cell-based, Streptococcus gordonii; parameters: key: “−” indicates not inhibited; “+” indicates mildly inhibited; “++” indicates inhibited
Method: as §2, §3, §4

S. mitis CCUG 31611 = assay: as above; assay type: cell-based, Streptococcus mitis; parameters: key: “−” indicates not inhibited; “+” indicates mildly inhibited; “++” indicates inhibited
Method: as §2, §3, §4

S. oralis 108 = assay: as above; assay type: cell-based, Streptococcus oralis; parameters: key: “−” indicates not inhibited; “+” indicates mildly inhibited; “++” indicates inhibited
Method: as §2, §3, §4

S. pneumoniae D39 = assay: as above; assay type: cell-based, Streptococcus pneumoniae; parameters: key: “−” indicates not inhibited; “+” indicates mildly inhibited; “++” indicates inhibited
Method: as §2, §3, §4

S. agalactiae A909 = assay: as above; assay type: cell-based, Streptococcus agalactiae; parameters: key to Inhibition By (S. agalactiae A909): “−” indicates not inhibited; “+” indicates mildly inhibited; “++” indicates inhibited
Method: as §2, §3, §4

S. bovis JB1 = assay: as above; assay type: cell-based, Streptococcus bovis; parameters: key to Inhibition By (S. bovis JB1): “−” indicates not inhibited; “+” indicates mildly inhibited; “++” indicates inhibited
Method: as §2, §3, §4

S. mutans [2] = assay: Morphological changes (cell chaining) by microscopy after tryglysin treatment; assay type: cell-based, Streptococcus mutans; conditions: 100 nM
Method: FIG. 4 is a graph showing the quantification of chains greater than three cells in length for S. mutans exposed to 100 nM tryglysin A for 2 h, 5 h, or 7 h. A minimum of 100 cells were observed per condition and time point. −, no tryglysin A; +, 100 nM tryglysin A. **, P<0.01; ns, not significant by one-way ANOVA with Dunnet's multiple comparison posttest.
The impact of tryglysins on gross morphological changes to cell shape was examined at 2, 5, and 7 h after treatment with 100 nM tryglysin A or B by microscopy.
Prestored glycerol stocks of S. mutans strains at −80° C. were inoculated into THY broth and incubated overnight at 37° C. in an atmosphere of 5% CO2. CDM was prepared and prewarmed at 37° C. in an atmosphere of 5% CO2 overnight. The next morning, strains were transferred to sterile 15-ml conical tubes and centrifuged at room temperature at 4,000×g for 10 min. Strains were resuspended in 1 ml prewarmed CDM, transferred to microcentrifuge tubes, and centrifuged again at room temperature at 14,000×g for 5 min. Supernatant was discarded, and strains were resuspended in 1 ml fresh prewarmed CDM. Resuspended strains were then inoculated into 6 ml prewarmed CDM at 1:200 dilution. At each time point, strains were monitored by measuring OD600 with a GENESYS 30 Vis spectrophotometer (Thermo-Fisher)
If required, at 1 h postinoculation, 100 nM tryglysin A or B was added to the media. For microscopic analysis of samples, 2 ml of live cells was taken at 2 h, 5 h, and 7 h after the addition of tryglysins and examined using an Olympus CKX53 inverted microscope with a 40× LCACHN-iPC infinity objective (LCACHN40XIPC; numerical aperture, 0.55) connected to a SC50 camera (Olympus). Images were processed using Olympus Stream Image Analysis software (Olympus).

[3] = to a lower degree than for S. agalactiae

Substance | growth inhibition of S. mutans (S. mutans [1]; 10 nM, 9-h growth assay) | growth inhibition of S. ferus (S. ferus; 10 nM) | growth inhibition of S. ferus (S. ferus; 100 nM) | Inhibition By (E. faecalis V583) (E. faecalis V583) | Inhibition By (L. lactis ATCC 11454) (L. lactis ATCC 11454) | Inhibition By (S. pyogenes NZ131) (S. pyogenes NZ131) | Inhibition By (S. ferus DSM 20646) (S. ferus DSM 20646) | Inhibition By (S. mutans UA159) (S. mutans UA159) | Inhibition By (S. sanguinis ATCC 10556) (S. sanguinis ATCC 10556) | Inhibition By (S. gordonii Challis Bt) (S. gordonii Challis Bt) | Inhibition By (S. mitis CCUG 31611) (S. mitis CCUG 31611) | Inhibition By (S. oralis 108) (S. oralis 108) | Inhibition By (S. pneumoniae D39) (S. pneumoniae D39) | Inhibition By (S. agalactiae A909) (S. agalactiae A909) | Inhibition By (S. bovis JB1) (S. bovis JB1) | chaining of S. mutans cells (chains greater than three cells in length) (S. mutans [2]; 5 h after addition) | chaining of S. mutans cells (chains greater than three cells in length) (S. mutans [2]; 7 h after addition) | also measured
Tryglysin B (VNCWGKH; bridge (positions not given here); also: macrocyclic, tetrahydro[5,6]benzindole modification, places not given here; listed as Streptococcus ferus) | some inhibition | minimal inhibition | compete inhibition | − | − | − | ++ | ++ | ++ | + | ++ | ++ | ++ | + | + | appeared to do the same | appeared to do the same | concentration required for significant growth inhibition of S. mutans (S. mutans [1]; 9-h growth assay): at least 100 nM; concentration required for S. mutans to be completely inhibited (S. mutans [1]; over the 9-h growth assay): 1 µM
Tryglysin A (VNSWGKH; bridge (positions not given here); also: macrocyclic, tetrahydro[5,6]benzindole modification, places not given here) | Significant growth inhibition | Significant growth inhibition | complete inhibition | − | − | − | ++ | ++ | ++ | + | ++ | ++ | ++ | ++ | + | significantly increased | significantly increased | growth inhibition of S. mutans (S. mutans [1]; 100 nM, 9-h growth assay): further inhibition; growth inhibition of S. mutans (S. mutans [1]; 1 μM, 9-h growth assay): further inhibition; inhibitory activity against S. sanguinis compared with variant B (S. sanguinis ATCC 10556; [3]): greater inhibitory activity; inhibitory activity against S. agalactiae compared with variant B (S. agalactiae A909): greater inhibitory activity; inhibitory activity against S. bovis compared with variant B (S. bovis JB1; [3]): greater inhibitory activity
